According to patent publication US10576096B2, “Tumor-selective combination therapy” (priority 2013, dated 2020):
Values after ≈ are worked out from the molar mass of the structure shown. Values joined by “and” are separate entries in the source; they are usually repeats but may differ in a detail not shown here. Equal entries are not always repeated.

Tests used:
[1] = system: A549 NSCLC cells or MiaPaCa-2 pancreatic cancer cells; test: Sensitivity enhancement: PARP1 inhibitors combined with β-lapachone or DNQ, relative survival; format: cell-based, human; details: 10 = one log kill, 100 = two logs kill; for Sensitivity Enhancement (change in survival) with Deoxynyboquinone (DNQ): nontoxic DNQ (0.02 μM A549, 0.025 μM MiaPaca-2) + optimal dose (15 μM) of PARP1 inhibitor; for Sensitivity Enhancement (change in survival) with β-Lapachone: nontoxic β-lapachone (3 μM A549, 2 μM Mia Paca2) + optimal dose (15 μM) of PARP1 inhibitor
Procedure: Mia PaCa-2 cells were treated for 2 hours with the inhibitors noted in FIG. 30 and then with DNQ+the inhibitors (all at 15 μM) for 2 hours.

[2] = system: MIA PaCa-2 tumor xenografts; test: Antitumor efficacy in tumor xenografts; format: in vivo, mice; details: β-lap-HPβ-CD at 20 or 30 mg/kg, iv
Procedure: (A) Body weight changes of mice bearing orthotopic MIA PaCa-2 tumors. (B) Kaplan-Meier survival for pancreatic antitumor efficacy experiments described in (A). Log-rank analyses were performed comparing survival curves (***p<0.0001) for HPβ-CD vs. β-lap-HPβ-CD at 20 or 30 mg/kg, iv. Results are combined survival data from three similar experiments. (C) Bioluminescent images (BLI) of mice bearing spleen-implanted pancreas cancers before and after treatment with HPβ-CD or β-lap-HPβ-CD (Arq761) at 20 or 30 mg/kg, iv. (D) Quantification of pancreatic tumor burden. BLI (photons per second) were determined before and 12 days post-therapy with HPβ-CD or β-lap-HPβ-CD at 20 or 30 mg/kg, iv. Results are means, +SE (n=5). Student's t tests (***p<0.005) were performed comparing HPβ-CD vs. β-lap-HPβ-CD at 20 or 30 mg/kg, iv. V, Vehicle (HPβ-CD).
Altering BER or SSB repair can enhance NQO1 bioactivatable drug efficacy in a tumor-selective manner. siRNA-mediated knockdown of the Ogg1 glycosylase renders s-lap-treated pancreatic cancer cells resistant to ß-lapachone (FIG. 6), however NQO1 bioactivatable drugs cause SSBs and base lesions in a tumor-specific manner, thus they can be used to make DNA repair inhibitors tumor-selective (FIG. 7). PARP1 inhibitors synergize with NQO1 bioactivatable drugs for enhanced efficacy in NQO1+ cancer cells, such as pancreatic cancer cells (FIG. 8). […]

[3] = system: Mia PaCa-2 cells; test: ß-lapachone lethal vs. sublethal doses, 2 h treatment; format: cell-based; details: listed as ß-lapachone
Procedure: MeOX, 12 mM; Dicoumarol, NQO1 inhibitor, 50 μM; ß-lapachone doses, indicated or 2 μM. For Mia Paca2 cells, 2-2.5 μM is sublethal, 6 μM is lethal. H2O2 dose was 500 μM, 2 h. All treatments were 2 h in duration. Cells were treated 2× with MeOX, as a 2 h pretreatment and then for 2 h in combination with ß-lap where applicable.
Addition of Methoxyamine (MeOX) prevents ATP recovery responses in ß-lap-treated Mia PaCa-2 cells at lethal and sublethal doses (FIG. 24). Lethal doses of ß-lapachone were 6 and 4 μM, whereas 3.0 and 2.5 μM are sublethal doses of ß-lapachone (ß-lap).

[4] = system: A549 NSCLC cells; test: ß-lapachone nontoxic vs. lethal dose, 2 h; format: cell-based, human
Procedure: FIGS. 46A-B. DNA damage via combinatorial treatment. (A) A549 NSCLC cells were pre-treated with or without Rucaparib (AG014699) and then exposed to a nontoxic dose of ß-lapachone (3 μM) at the concentrations indicated with or without the same PARP1 inhibitor. Cells were also exposed to a lethal dose of ß-lapachone (8 μM). Cells were then analyzed by neutral comet assays and DNA damage graphed in (B).
A459 NSCLC cells were pretreated with 15 μM AG014699 for 2 hours, then exposed to the same concentration of AG014699+various concentrations of DNQ87 for 2 hours as indicated (FIG. 45). Cells were then washed free of drug and relative survival performed as previously described (Huang et al., Cancer Res., 2012). Cells treated in this manner by nontoxic doses of ß-lap show enhanced DNA lesion formation, equivalent to DNA lesions formed by a lethal dose of ß-lap (8 μM, 2 hours) (FIG. 46).

[5] = target: NQO1 (Homo sapiens, UniProt P15559); details: in two minutes; cited from earlier work
Chain of NQO1 (P15559 whole entry): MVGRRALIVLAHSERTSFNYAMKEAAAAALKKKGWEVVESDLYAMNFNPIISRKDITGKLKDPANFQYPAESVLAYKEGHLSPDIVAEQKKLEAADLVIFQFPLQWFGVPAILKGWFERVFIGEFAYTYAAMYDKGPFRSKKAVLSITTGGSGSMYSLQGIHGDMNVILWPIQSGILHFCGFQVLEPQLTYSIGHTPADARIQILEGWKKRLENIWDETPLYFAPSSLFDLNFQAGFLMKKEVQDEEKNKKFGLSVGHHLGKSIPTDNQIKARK

[6] = system: NOD/SCID mice injected with 3LL-Luc cells; test: DNQ derivatives pilot study of maximum tolerated dose (MTD); details: 3 NOD/SCID mice
[7] = in vivo; details: NOD/SCID, mouse, iv
[8] = system: A549 and Mia PaCa-2 cells; test: AG014699 alone, lethality in BRCA1 wild-type cancer cells; format: cell-based; details: drug alone
Description: FIGS. 33A-D. AG014699 enhances the NQO1-dependent lethality of ß-lapachone in A549 NSCLC cells.
AG014699 enhances the NQO1-dependent lethality of ß-lapachone in A549 NSCLC cells (FIG. 33).

[9] = system: BRCA1−/− CAPAN-1 cells; test: AG014699 alone, synthetic lethality control; format: cell-based
[10] = system: Mia Paca2 pancreatic cancer cells; test: Methoxyamine plus ß-lapachone lethality (colony forming assays); format: cell-based; details: nonlethal doses of methoxyamine
Procedure: FIGS. 9A-F. Methoxyamine (MeOX) enhances β-lap-induced NQO1-driven lethality. Mia Paca-2 cells were treated with indicated doses of β-lap+/−MeOX (12 mM), or β-lap alone for 2 hours. Endpoints examined: (A) Colony forming assays show synergy of MeOX+ß-lap; (B) MeOX treatment modifies AP sites induced by β-lap in Mia Paca-2 cells; (C) MeOX enhances β-lap-induced ATP loss; (D) MeOX blocks ATP recovery after sublethal β-lap doses; (E) β-lap+MeOX co-treatment enhances γH2AX foci formation. […] Dicoumarol (DIC, 50 μM, 2 h) blocked synergy.
(§1) B and C, Methoxyamine (MeOX) is an AP-site modifying chemical that is nontoxic to >100 mM as measured by relative survival and ATP loss. Optimal concentrations in combination with NQO1 bioactivatable drugs are between 6-12 mM. FIG. 21 illustrates Proof of Principle studies. A. Methoxyamine (MeOX) augments ß-lapachone ß-lap)-induced lethality in MiaPaca2 pancreatic cancer cells. B. Addition of MeOX modifies AP sites and therefore decreases signal of AP site formation in ß-lap+MeOX exposed cells. MeOX dose was 12 mM, ß-lap Dose was 6 μM. C,D. XRCC1 is a scaffolding protein that enables base excision repair (BER). Elimination of XRCC1 causes elevated AP sites and DNA single strand breaks, at which PARP1 can bind and become activated/hyperactivated. Knockdown of XRCC1 (C) enhances the lethality of ß-lapachone treatment.

[11] = system: Mia Paca2 pancreatic cancer cells; test: Methoxyamine alone: relative survival and ATP loss; format: cell-based
Procedure: FIGS. 20A-C. Determination of lethal vs. sublethal doses of methoxyamine (MeOX or MX, as indicated); A, MeOX with β-lapachone; B, MeOX; C, MeOX.
as §1

[12] = system: PARP1; test: PAR formation (PARP1 inhibition) in cells treated with NQO1 bioactivatable drug plus inhibitor; format: cell-based; details: inhibitors at 15 μM
[13] = Formulation of DNQ compounds in HPβCD (solubility, solution stability); format: physicochemical
Description: This same neutral solution of DNQ in HPβCD cannot be made directly (i.e. without pH adjustment). […] The only proton on DNQ that might reasonably be deprotonated in aqueous base is the N—H. Although the acidity of the N—H bond of DNQ has not been measured, it has been measured for a derivative of DNQ and found to have a pKa of 8.0.
The protocol for formulating DNQ compounds in HPβCD is as follows: the DNQ compound is slurried in a 20% solution of HPβCD in pH 7.4 PBS and the pH is then increased by the addition of 10 M NaOH to induce dissolution of the DNQ compound. The pH is returned to pH 7.5-8.0 by the careful addition of 1 M HCl. A 3.3 mM solution of the DNQ compound can be made by this method which is stable at least 24 hours. This represents a 30-fold increase in solubility of DNQ over PBS alone. We initially chose a 20% HPβCD solution.

[14] = system: NOD/SCID mice injected with 3LL-Luc cells; details: mouse, in vivo, iv
[15] = Aqueous solubility in PBS pH 7.4 by LC-MS; format: physicochemical; details: pH 7.4 PBS, 30 min sonication, filtered
Procedure: The aqueous solubility of DNQ at pH 7.4 in phosphate buffered saline (PBS) was measured by LC-MS. DNQ was sonicated for 30 minutes in PBS then undissolved solid was removed by filtration through a 0.45 μm syringe filter and the filtrate was analyzed by LC-MS (λ=275 nm, ESI-TOF in negative mode). The optimal sonication time was determined by sonicating DNQ for 1, 5, 10, and 30 minutes. While the concentration of DNQ in solution increased substantially between 1, 5, and 10 minutes, there was only a minor difference between 10 and 30 minutes. During the 30 minute sonication the water bath warmed to 45° C. (samples were cooled to room temperature before filtration). A calibration curve was generated from 1-100 μM by dissolving DNQ in methanol to a concentration of 500 μM and making dilutions of this stock in 80:20 water:methanol. The calibration curve (measure by UV absorbance) was linear over this range; 1 μM was approximately the limit of detection. […] The solution was very pale yellow.

[16] = system: breast cancer cells; test: IB-DNQ (DNQ87) lethality in breast cancer cells; format: cell-based; details: NQO1-dependent
Description: It is effective against breast cancer cells in an NQO1-dependent manner, as well as triple-negative breast cancer cells (A-F, for various cell types).
Unlike β-lapachone (ß-lap), efficacy of DNQ87 increases in an NQO1-dependent manner and the therapeutic window is larger (FIG. 14). […] (C) PARP1 hyperactivation caused by DNQ87 exposure measured by PAR-PARP1 formation, highlighted by μ-calpain-mediated p53 cleavage (C) and atypical cleavage of PARP1 to ^˜60 kDa proteolytic fragments during cell death (D). DNQ87 also causes DNA lesions (DNA double strand breaks) in a delayed manner, monitored by gamma-H2AX, phosphorylation of ATM at ser1981, and phosphorylation of DNA-PKcs at site Thr1892 (FIG. 16).

Structure (SMILES): O=c1[nH]cnc2c1ncn2[C@@H]1O[C@H](CO)[C@@H](O)[C@H]1O [INO-1001]
- Sensitivity Enhancement (change in survival) with Deoxynyboquinone (DNQ) [1]: 10
- Sensitivity Enhancement (change in survival) with β-Lapachone [1]: 7

Structure (SMILES): CC1(C)CCC2=C(O1)c1ccccc1C(=O)C2=O [β-Lapachone, β-lapachone]
- antitumor efficacy [2]: significant antitumor efficacy
- sublethal dose [3]: 2 to 2.5 µM and 3.0 µM and 2.5 µM
- nontoxic dose [4]: 3 µM
- lethal dose ([4]; 2 hours): 8 µM
- superoxide generated per mole of compound [5]: ~120 mol

Structure (SMILES): Cc1cc(=O)[nH]c2c1C(=O)c1c(C)cc(=O)n(CCC(C)(C)C)c1C2=O [Compound 9-251]
- Dead mice (5 IV.) ([6]; 20 mg/kg): 0
- MTD at 5 injections, 1x every other day [7]: 20 mg/kg

Structure (SMILES): CCCn1c2c(c(C)cc1=O)C(=O)c1c(C)cc(=O)[nH]c1C2=O [Compound 10-41]
- Dead mice (5 IV.) ([6]; 15 mg/kg): 3
- MTD at 5 injections, 1x every other day [7]: 7 mg/kg

Structure (SMILES): CNCc1ccc(-c2[nH]c3cc(F)cc4c3c2CCNC4=O)cc1 [AG-014699, Rucaparib]
- Sensitivity Enhancement (change in survival) with Deoxynyboquinone (DNQ) [1]: 100
- Sensitivity Enhancement (change in survival) with β-Lapachone [1]: 10
- response of BRCA1 wild-type cells to the PARP1 inhibitor alone [8]: completely resistant
- lethality of drug alone [9]: synthetic lethality

Structure (SMILES): CON [Methoxyamine, methoxyamine]
- lethality in combination with ß-lapachone [10]: synergistic lethality
- optimal concentration in combination with NQO1 bioactivatable drugs [11]: 6 to 12 mM
- nontoxic concentration ([11]; measured by relative survival and ATP loss): > 100 mM

Structure (SMILES): NC(=O)c1ccc(I)c([N+](=O)[O-])c1 [BSI-201, Iniparib]
- Sensitivity Enhancement (change in survival) with Deoxynyboquinone (DNQ) [1]: 4
- Sensitivity Enhancement (change in survival) with β-Lapachone [1]: 3
- inhibition of PAR formation [12]: not an efficacious PARP1 inhibitor

Structure (SMILES): CN(C)Cc1ccc(-c2nc3cccc4c3n2CCNC4=O)cc1 [AG14361]
- Sensitivity Enhancement (change in survival) with Deoxynyboquinone (DNQ) [1]: 10
- Sensitivity Enhancement (change in survival) with β-Lapachone [1]: 5

Structure (SMILES): Cc1cc(=O)[nH]c2c1C(=O)c1c(C)cc(=O)n(C)c1C2=O [DNQ, Deoxynyboquinone]
- Dead mice (5 IV.) ([6]; 7.5 mg/kg): 2
- stability of HPβCD solution ([13]; 3.3 mM in 20% HPβCD): at least 24 hours
- increase in solubility over PBS alone ([13]; 20% HPβCD): 30 fold
- concentration of solution in HPβCD ([13]; 20% HPβCD in pH 7.4 PBS, pH raised with NaOH then returned to 7.5-8.0): 3300 µM
- concentration of solution in HPβCD ([13]; 40% HPβCD, extrapolated from linear increase with HPβCD): 6600 µM
- MTD [14]: 6
- solubility in PBS [15]: 115 µM (≈ 32.7 µg/mL)

Structure (SMILES): C[C@]1(c2nc3c(C(N)=O)cccc3[nH]2)CCCN1 [ABT-888, Veliparib]
- Sensitivity Enhancement (change in survival) with Deoxynyboquinone (DNQ) [1]: 15
- Sensitivity Enhancement (change in survival) with β-Lapachone [1]: 10

Structure (SMILES): Cc1cc(=O)[nH]c2c1C(=O)c1c(C)cc(=O)n(CC(C)C)c1C2=O [Compound 87]
- Dead mice (5 IV.) ([6]; 14 mg/kg): 0
- effective doses relative to ß-lapachone and DNQ [16]: works at much lower doses versus ß-lapachone and at doses equivalent to the parental DNQ compound
- MTD at 5 injections, 1x every other day [7]: ~16 mg/kg

Structure (SMILES): O=C(c1cc(Cc2n[nH]c(=O)c3ccccc23)ccc1F)N1CCN(C(=O)C2CC2)CC1 [AZD2281, Olaparib]
- Sensitivity Enhancement (change in survival) with Deoxynyboquinone (DNQ) [1]: 20
- Sensitivity Enhancement (change in survival) with β-Lapachone [1]: 10

Structure (SMILES): CCc1cc(=O)n(C)c2c1C(=O)c1c(C)cc(=O)[nH]c1C2=O [Compound 107]
- Dead mice (5 IV.) ([6]; 10 mg/kg): 1
- MTD at 5 injections, 1x every other day [7]: 8 mg/kg
